Measured values: PubChem BioAssay (NCI)
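1) Cells in 96-well plates. 2) Compound, 48 h, 5 concentrations. 3) Linear interpolation between surrounding doses. 4) Unreached endpoint = highest concentration. TGI denotes the concentration required for complete inhibition of growth.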

Tests used:
Test in all cases: NCI-60 cell line screen, 48 h
[1] = system: 786-0 renal
[2] = system: A498 renal
[3] = system: A549 NSCLC
[4] = system: ACHN renal
[5] = system: BT-549 breast
[6] = system: CAKI-1 renal
[7] = system: CCRF-CEM leukemia
[8] = system: COLO 205 colon
[9] = system: DU-145 prostate
[10] = system: EKVX NSCLC
[11] = system: HCT-116 colon
[12] = system: HCT-15 colon
[13] = system: HL-60(TB) leukemia
[14] = system: HOP-62 NSCLC
[15] = system: HOP-92 NSCLC
[16] = system: HS 578T breast
[17] = system: HT29 colon
[18] = system: IGROV1 ovarian
[19] = system: K-562 leukemia
[20] = system: KM12 colon
[21] = system: LOX IMVI melanoma
[22] = system: M14 melanoma
[23] = system: MALME-3M melanoma
[24] = system: MDA-MB-231 breast
[25] = system: MDA-MB-435
[26] = system: MDA-N
[27] = system: MOLT-4 leukemia
[28] = system: NCI-H226 lung
[29] = system: NCI-H23 lung
[30] = system: NCI-H460 lung
[31] = system: NCI-H522 lung
[32] = system: NCI/ADR-RES ovarian
[33] = system: OVCAR-3 ovarian
[34] = system: OVCAR-5 ovarian
[35] = system: OVCAR-8 ovarian
[36] = system: PC-3 prostate
[37] = system: RPMI-8226 leukemia
[38] = system: RXF 393 renal
[39] = system: SF-268 CNS
[40] = system: SF-295 CNS
[41] = system: SF-539 CNS
[42] = system: SK-MEL-2 melanoma
[43] = system: SK-MEL-28 melanoma
[44] = system: SK-MEL-5 melanoma
[45] = system: SK-OV-3 ovarian
[46] = system: SN12C renal
[47] = system: SNB-19 CNS
[48] = system: SNB-75 CNS
[49] = system: SW-620 colon
[50] = system: T-47D breast
[51] = system: TK-10 renal
[52] = system: U251 CNS
[53] = system: UACC-257 melanoma
[54] = system: UACC-62 melanoma
[55] = system: UO-31 renal
[56] = system: HCC-2998 colon
[57] = system: MCF7 breast
[58] = system: OVCAR-4 ovarian
[59] = system: SR leukemia

`COC(=O)Cc1c([C@H]2[C@H](CC(=O)OC)c3ccccc3N2C(C)=O)[nH]c2ccccc12` was tested, and the TGI [1] was over 100 µM, the TGI [2] was over 100 µM and the TGI [3] was over 100 µM. It also gave a TGI [4] of over 100 µM, a TGI [5] of over 100 µM and a TGI [6] of over 100 µM. The TGI [7] was over 100 µM, the TGI [8] was over 100000 nM and the TGI [9] was over 100000 nM. The TGI [10] was over 100 µM, the TGI [11] was over 100 µM and the TGI [12] was over 100 µM. For the same compound, the TGI [13] was over 100 µM, the TGI [14] was over 100 µM and the TGI [15] was over 100 µM. It also gave a TGI [16] of over 100 µM, a TGI [17] of over 100000 nM and a TGI [18] of over 100000 nM. For the same compound, the TGI [19] was over 100 µM, the TGI [20] was over 100000 nM and the TGI [21] was over 100 µM. It also gave a TGI [22] of over 100 µM, a TGI [23] of over 100 µM and a TGI [24] of over 100 µM. The TGI [25] was over 100 µM, the TGI [26] was over 100000 nM and the TGI [27] was over 100 µM. For the same compound, the TGI [28] was over 100 µM, the TGI [29] was over 100000 nM and the TGI [30] was over 100 µM. The TGI [31] was over 100000 nM, the TGI [32] was over 100000 nM and the TGI [33] was over 100 µM. For the same compound, the TGI [34] was over 100 µM, the TGI [35] was over 100 µM and the TGI [36] was over 100 µM. It also gave a TGI [37] of over 100 µM, a TGI [38] of over 100 µM and a TGI [39] of over 100 µM. For the same compound, the TGI [40] was over 100000 nM, the TGI [41] was over 100000 nM and the TGI [42] was over 100 µM. The TGI [43] was over 100 µM, the TGI [44] was over 100000 nM and the TGI [45] was over 100000 nM. For the same compound, the TGI [46] was over 100 µM, the TGI [47] was over 100 µM and the TGI [48] was over 100 µM. The TGI [49] was over 100 µM, the TGI [50] was over 100 µM and the TGI [51] was over 100 µM. It also gave a TGI [52] of over 100 µM, a TGI [53] of over 100 µM and a TGI [54] of over 100 µM. For the same compound, the TGI [55] was over 100 µM.
With `COc1cc2c(/C=C3/C(=O)Nc4ccccc43)c(Cl)[nH]c2cc1C` the TGI [1] was 13.9 µM, the TGI [2] was 19.8 µM and the TGI [3] was 22.7 µM. It also gave a TGI [4] of 17.4 µM, a TGI [5] of 17.1 µM and a TGI [6] of 23.6 µM. The TGI [7] was over 67.8 µM, the TGI [8] was 1730 nM and the TGI [9] was 1080 nM. For the same compound, the TGI [10] was 25.1 µM, the TGI [56] was 982 nM and the TGI [11] was 11 µM. For the same compound, the TGI [12] was 11 µM, the TGI [13] was 3.34 µM and the TGI [14] was 26.4 µM. For the same compound, the TGI [15] was 26.6 µM, the TGI [16] was over 100 µM and the TGI [17] was 1050 nM. The TGI [18] was 1100 nM, the TGI [19] was 24 µM and the TGI [20] was 232 nM. The TGI [21] was 15.4 µM, the TGI [22] was 17 µM and the TGI [57] was 16.6 µM. For the same compound, the TGI [24] was 4.89 µM, the TGI [26] was 39.6 nM and the TGI [27] was 14.2 µM. The TGI [28] was over 100 µM, the TGI [29] was 879 nM and the TGI [30] was 15.7 µM. The TGI [31] was 2400 nM, the TGI [32] was 894 nM and the TGI [33] was over 39.9 µM. For the same compound, the TGI [58] was 21.1 µM, the TGI [34] was 23.7 µM and the TGI [35] was 12.6 µM. For the same compound, the TGI [36] was 16.3 µM, the TGI [37] was 24.9 µM and the TGI [38] was 24 µM. It also gave a TGI [39] of 18.5 µM, a TGI [40] of 1190 nM and a TGI [41] of 225 nM. The TGI [42] was 25.4 µM, the TGI [43] was 29.6 µM and the TGI [44] was 1420 nM. The TGI [45] was 141 nM, the TGI [46] was 13.1 µM and the TGI [47] was 17.5 µM. It also gave a TGI [48] of 17.9 µM, a TGI [59] of 10.1 µM and a TGI [49] of 59 µM. It also gave a TGI [50] of 41.1 µM, a TGI [51] of 21.7 µM and a TGI [52] of 10.9 µM. The TGI [53] was over 45.8 µM, the TGI [54] was 15.5 µM and the TGI [55] was 20.7 µM.
